Results on 9 compounds are retold here after ChEMBL document CHEMBL3259679, “Synthesis of novel tricyclic chromenone-based inhibitors of IRE-1 RNase activity” (J Med Chem, 2014).

The source made the active and inactive calls. The calls are words filed in the database; no cut-off is given here.

Data set [1] can be described thus: Drug degradation after 12 hrs by LC-MS analysis. It is filed as physicochemical.
The test system of data set [2] is B-cell. Nature of the data set: Inhibition of XBP-1s expression in LPS-stimulated wild-type mouse B lymphocytes at 20 uM after 24 hrs by Western blotting analysis.
A short description of data set [3]: Upregulation of IRE-1 expression in human Mino cells at 20 uM after 24 hrs by immunoblotting analysis. It counts as functional, cell-based.
Data set [4] is described as follows: Upregulation of IRE-1 expression in human Jeko cells at 20 uM after 24 hrs by immunoblotting analysis. The following applies: JeKo-1. It is filed as functional, cell-based.
The nature of data set [5]: Growth inhibition of human Mino cells after 48 hrs by XTT assay. It counts as functional.
Data set [6] in a line: Growth inhibition of human Jeko cells after 48 hrs by XTT assay. It is filed as functional, JeKo-1.
The test system of data set [7] is Mino. Nature of the data set: Induction of apoptosis in human Mino cells assessed as PARP cleavage at 50 uM after 72 hrs by immunoblotting analysis. It is filed as functional, cell-based.
Data set [8] deals with JeKo-1. As to the kind of experiment: Induction of apoptosis in human Jeko cells assessed as PARP cleavage at 50 uM after 72 hrs by immunoblotting analysis. It counts as functional, cell-based.
Data set [9] concerns B-cell. Conditions: Mus musculus, 20 uM.
In data set [10] the test system is Mino. The following applies: Homo sapiens, 20 uM.
Data set [11] relates to JeKo-1. Conditions: Homo sapiens, 20 uM.
Data set [12] addresses Serine/threonine-protein kinase/endoribonuclease IRE1 (Homo sapiens, UniProt O75460). As to the kind of experiment: Inhibition of human recombinant puritin-His-tagged IRE-1 RNase expressed in SF21 cells using XBP-1 RNA stem loop as substrate incubated for 30 mins prior to substrate addition measured after 2 hrs by FRET-suppression assay.
The test system of data set [13] is JeKo-1. Nature of the data set: cells. Conditions: Homo sapiens, JeKo-1, 24 h.

Sequence of Serine/threonine-protein kinase/endoribonuclease IRE1 (O75460 whole entry): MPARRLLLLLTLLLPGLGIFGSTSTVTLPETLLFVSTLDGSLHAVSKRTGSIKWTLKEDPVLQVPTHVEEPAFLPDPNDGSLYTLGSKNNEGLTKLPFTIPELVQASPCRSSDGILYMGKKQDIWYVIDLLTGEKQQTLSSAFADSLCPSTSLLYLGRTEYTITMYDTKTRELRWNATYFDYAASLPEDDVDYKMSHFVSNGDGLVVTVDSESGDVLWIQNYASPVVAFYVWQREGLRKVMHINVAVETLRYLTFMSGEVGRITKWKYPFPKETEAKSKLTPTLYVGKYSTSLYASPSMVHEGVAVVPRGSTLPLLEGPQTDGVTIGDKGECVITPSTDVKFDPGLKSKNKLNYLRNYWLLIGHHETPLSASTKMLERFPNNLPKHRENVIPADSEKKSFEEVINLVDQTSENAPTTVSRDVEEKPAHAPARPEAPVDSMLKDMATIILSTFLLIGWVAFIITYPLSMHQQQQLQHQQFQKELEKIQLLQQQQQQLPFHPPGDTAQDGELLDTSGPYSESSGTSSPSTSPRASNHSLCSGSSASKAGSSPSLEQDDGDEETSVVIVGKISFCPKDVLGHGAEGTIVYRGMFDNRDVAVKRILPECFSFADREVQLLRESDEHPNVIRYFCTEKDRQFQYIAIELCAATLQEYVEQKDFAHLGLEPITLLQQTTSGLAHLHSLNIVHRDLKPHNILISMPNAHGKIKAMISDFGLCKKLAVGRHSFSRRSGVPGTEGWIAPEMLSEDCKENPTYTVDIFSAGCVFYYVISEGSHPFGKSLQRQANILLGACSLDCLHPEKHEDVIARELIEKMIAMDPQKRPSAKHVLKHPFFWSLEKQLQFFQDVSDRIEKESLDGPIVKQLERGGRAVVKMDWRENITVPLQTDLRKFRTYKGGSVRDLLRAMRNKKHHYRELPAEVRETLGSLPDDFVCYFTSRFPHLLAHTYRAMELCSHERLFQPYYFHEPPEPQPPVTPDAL

As for `C=CCOC(=O)N1CCc2c(c(=O)oc3c(C4OCCCO4)c(O)ccc23)C1`, the Stability result in data set [1] was “Stable”. The inhibition entry with B-cell [2] is “Active”.

On to `CN1CCc2c(c(=O)oc3c(C=O)c(O)ccc23)C1`, for which the outcome (in [3]; in data set [4]; with Mino [7]; in the data set on JeKo-1 [8]) was Active. Moreover, the GI in data set [5] stood at 55 µM; in [6], 66 µM. For the same compound, the inhibition result with B-cell [9], in the data set on Mino [10] and in the data set on JeKo-1 [11] was “Active” each time.

As for `C=CCOC(=O)N1CCc2c(c(=O)oc3c(C=O)c(OCc4ccccc4)ccc23)C1`, in data set [12], the IC50 is above 20000 nM.

As to `C=CCOC(=O)N1CCc2c(c(=O)oc3c(C=O)c(O)ccc23)C1`, the result in data set [3] and in [4] was Active. Further, the inhibition result in the data set on Mino [10], in the data set with JeKo-1 [11] and with B-cell [2] was “Active” in each case.

Consider `C=CCOC(=O)N1CCc2c(c(=O)oc3c(C(=O)OC)c(O)ccc23)C1`, for which the inhibition result with B-cell [9] is “inactive”.

Regarding `CC(=O)N1CCc2c(c(=O)oc3c(C=O)c(O)ccc23)C1`, the outcome in [3] and in data set [4] was Active. The inhibition result in the data set on B-cell [9], in the data set on Mino [10] and in the data set on JeKo-1 [11] was “Active” in each case.

As to `Cc1cc(=O)oc2c(C=O)c(O)ccc12`, the IC50 with JeKo-1 [13] stood at 1570 nM. Moreover, the inhibition entry with B-cell [2] is “Active”.

For `C=CCOC(=O)N1CCc2c(c(=O)oc3c(/C=C/C(=O)OCC)c(O)ccc23)C1`, in the data set on B-cell [9], the inhibition result is “inactive”.

As to `C=CCOC(=O)N1CCc2c(c(=O)oc3c(C(=O)O)c(O)ccc23)C1`, the inhibition result in the data set with B-cell [9] was “inactive”.
